Laboratory results published in US20220306623A1, “PYRIDYL OR PYRIMIDYL MTOR KINASE INHIBITORS” (GLAXOSMITHKLINE INTELLECTUAL PROPERTY DEVELOPMENT LIMITED, priority 2019, published 2022).
Like-named read-outs stand apart in the source and are kept apart here.

Test system: type I collagen deposition in primary lung fibroblasts derived from human tissue
Assay: High throughput type I collagen deposition (scar-in-a-jar) high content screening assay
Assay type: cell-based
Conditions: Primary lung fibroblast, 72 h, human pulmonary fibroblasts, 384-well, TGF-β 1 ng/ml 72 h
Experimental: Highthroughput, cellular type I collagen deposition was measured by adapting a published method; scar-in-a-jar (Chen et al., 2009) to primary lung fibroblasts derived from human tissue and combining with high content analysis to permit fluorescent quantification of collagen deposited in the extracellular matrix (ECM). The human biological samples were sourced ethically and their research use was in accordance with the terms of the informed consents.
Test compounds were dissolved in 100% DMSO to give 10 mM (stocks) and further diluted to give half log dilutions to generate an 11 point concentration response curve. 1 ul was transferred to 384-well plates (Greiner Group, Kremsmunster, Austria, Catalogue No Greine 781280r).
Human pulmonary fibroblasts were maintained in DMEM media (Gibco, Catalogue No 21969) supplemented with 4 mM L-glutamine (Gibco Catalogue No 25030-024) and 10% heat inactivated FBS (Gibco, Catalogue No 10099-141) at 37° C. in 10% CO2. Cells were harvested and resuspended at 4×10^6 cells/ml in a T175 cell culture flask (BD Falcom, Catalogue No: 353112) containing 50 mL of culture media. After 4 days 37° C. in 10% CO2, cells were harvested and seeded at 4000 cells per well ([…]) into 384-well plates (BD Falcon, Catalogue No 353962Greiner) in assay media (0.4% heat inactivated FBS, 4 mM L-glutamine). Plates were sealed with breathable seals (Sigma, Catalogue No. BEM-1). Assay plates were incubated for 72 h at 37° C. in 10% CO2.
Assay media was supplemented with 112.5 mg/ml Ficoll 70 (Sigma, Catalogue No F2878), 75 mg/ml Ficoll 400 (Sigma, Catalogue No F4375) and 50 µg/ml ascorbic acid (Sigma, Catalogue No A8960). 30 μL assay media were added to 1 l compound ([…] compound concentration in 1% DMSO). Diluted compounds (10 μL) were transferred to plates containing cells and incubated for 3 h at 37° C. in 10% CO2. Transforming growth factor (TGF)-β (R&D systems, Catalogue No 100-B/CF) was reconstituted to give 10 µg/mL (stock) and further diluted in assay media containing Ficoll and ascorbic acid (1 in 3333). TGF-β was added to cell plates (1 ng/ml final) and cells incubated for 72 h at 37° C. in 10% CO2.
Media was aspirated from cells and 30 µL/well 100% ice-cold methanol added and incubated at RT for 5 min to fix cells. Methanol was aspirated and cells washed with PBS (3×). To block and permeabilise, cells were incubated with PBS containing 1% BSA and 0.1% Triton X 100 for 20 min, followed by PBS wash (3×). Cells were incubated with mouse anti human type I collagen monoclonal antibody (Sigma, Catalogue No C2456) diluted 1:1000 in PBS for 24 h at 4° C. Cells were washed with PBS containing 0.1% Tween-20 (3×) and incubated with secondary alexa fluor 488 goat-anti-mouse antibody (Invitrogen, Catalogue No A11001, 1 in 500 in PBS) and Hoechst 33342 (Sigma, Catalogue No H21492), 1 in 1000 in PBS) for 1 h at RT, prior to washing with PBS containing 0.1% Tween (×4).
Type I collagen immunoreactivity was detected using the INCell 2000 Analyzer (GE Healthcare, INcell 2000) set to excitation and emission wavelengths for DAPI and FITC with laser focus and exposure adjusted to appropriate levels. Images were imported and analysed using Columbus software (Perkin Elmer) and computational algorithms to quantify “total collagen area” and “cell count”.
Data analysis was performed by determining 0/inhibition values for test compounds relative to the minimum (media only) and maximum responses (TGF-βstimulation) with non-linear regression analysis to determine IC50 values for test compounds.

[1] = selected compounds, read-out: Scar in a jar (mean pIC50 values when tested in the scar-in-a-jar assay) (converted)
[2] = total collagen area, read-out: mean pIC50, high throughput type I collagen deposition (scar-in-a-jar) (converted)

CC[C@H]1COCCN1c1cc(C2(S(C)(=O)=O)CCNCC2)cc(-c2ccc3[nH]c(C)cc3n2)n1 [Example 18, (S)-3-ethyl-4-(6-(2-methyl-1H-pyrrolo[3,2-b]pyridin-5-yl)-4-(4-(methylsulfonyl)piperidin-4-yl)pyridin-2-yl)morpholine]
IC50 [1]: 158 nM | IC50 [2]: 20 to 316 nM

CC[C@H]1COCC(=O)N1c1cc(CS(C)(=O)=O)cc(-c2ccc3[nH]c(CO)cc3n2)n1 [Example 27]
IC50 [2]: 20 to 3160 nM

CNCc1cc2nc(-c3cc(CS(C)(=O)=O)cc(N4CCO[C@H](C)[C@H]4C)n3)ccc2[nH]1 [Example 8, 1-(5-(6-((2R,3R)-2,3-dimethylmorpholino)-4-((methylsulfonyl)methyl)pyridin-2-yl)-1Hpyrrolo[3,2-b]pyridin-2-yl)-Nmethylmethanamine]
IC50 [2]: 20 to 3160 nM

CC[C@H]1COCC(=O)N1c1cc(C2(S(C)(=O)=O)CCOCC2)cc(-c2ccc3[nH]c(C)cc3n2)n1 [Example 25, (S)-5-ethyl-4-(6-(2-methyl-1H-pyrrolo[3,2-b]pyridin-5-yl)-4-(4-(methylsulfonyl)tetrahydro-2H-pyran-4-yl)pyridin-2-yl)morpholin-3-one]
IC50 [2]: 20 to 3160 nM

CC[C@H]1COCCN1c1cc(CS(N)(=O)=O)cc(-c2ccc3[nH]c(C)cc3n2)n1 [Example 23, (S)-(2-(3-ethylmorpholino)-6-(2-methyl-1H-pyrrolo[3,2-b]pyridin-5-yl)pyridin-4-yl)methanesulfonamide]
IC50 [2]: 20 to 3160 nM

CC[C@H]1COCCN1c1cc(CS(N)(=O)=O)nc(-c2ccc3[nH]c(CNC)cc3n2)n1 [Example 6, {6-[(3S)-3-ethylmorpholin-4-yl]-2-{2-[(methylamino)methyl]-1H-pyrrolo[3,2-b]pyridin-5-yl}pyrimidin-4-yl}methanesulfonamide]
IC50 [2]: 20 to 3160 nM

CC[C@H]1COCC(=O)N1c1cc(CS(C)(=O)=O)cc(-c2ccc3[nH]c(C)cc3n2)n1 [Example 24, (S)-5-ethyl-4-(6-(2-methyl-1H-pyrrolo[3,2-b]pyridin-5-yl)-4-((methylsulfonyl)methyl)pyridin-2-yl)morpholin-3-one]
IC50 [1]: 126 nM | IC50 [2]: 20 to 3160 nM

CC[C@H]1COCCN1c1cc(CS(C)(=O)=O)nc(-c2ccc3[nH]c(CNC)cc3n2)n1 [Example 1, [(5-{4-[(3S)-3-ethylmorpholin-4-yl]-6-(methanesulfonylmethyl)pyrimidin-2-yl}-1H-pyrrolo[3,2-b]pyridin-2-yl)methyl](methyl)amine]
IC50 [1]: 251 nM | IC50 [2]: 20 to 3160 nM

CC[C@H]1COCCN1c1cc(C2(S(C)(=O)=O)CCOCC2)nc(-c2ccc3[nH]c(C)cc3n2)n1 [Example 13, (3S)-3-ethyl-4-[6-(4-methanesulfonyloxan-4-yl)-2-{2-methyl-1H-pyrrolo[3,2-b]pyridin-5-yl}pyrimidin-4-yl]morpholine]
IC50 [2]: 20 to 3160 nM

CC[C@H]1COCC(=O)N1c1cc(CS(C)(=O)=O)nc(-c2ccc3[nH]c(C)cc3n2)n1 [Example 14, (5S)-5-ethyl-4-[6-(methanesulfonylmethyl)-2-{2-methyl-1H-pyrrolo[3,2-b]pyridin-5-yl}pyrimidin-4-yl]morpholin-3-one]
IC50 [1]: 25.1 nM | IC50 [2]: 20 to 3160 nM

CC[C@H]1COCCN1c1cc(C2(S(C)(=O)=O)CCOCC2)nc(-c2ccc3[nH]c(CO)cc3n2)n1 [Example 4, (5-{4-[(3S)-3-ethylmorpholin-4-yl]-6-(4-methanesulfonyloxan-4-yl)pyrimidin-2-yl}-1H-pyrrolo[3,2-b]pyridin-2-yl)methanol]
IC50 [2]: 20 to 3160 nM

CC[C@H]1COCCN1c1cc(CS(=O)(=O)N(C)C)nc(-c2ccc3[nH]c(CNC)cc3n2)n1 [Example 16, 1-{6-[(3S)-3-ethylmorpholin-4-yl]-2-{2-[(methylamino)methyl]-1H-pyrrolo[3,2-b]pyridin-5-yl}pyrimidin-4-yl}-N,N-dimethylmethanesulfonamide]
IC50 [1]: 100 nM | IC50 [2]: 20 to 3160 nM

CC[C@H]1COCCN1c1cc(CS(C)(=O)=O)nc(-c2ccc3[nH]c(CO)cc3n2)n1 [Example 2, (S)-(5-(4-(3-ethylmorpholino)-6-((methylsulfonyl)methyl)pyrimidin-2-yl)-1H-pyrrolo[3,2-b]pyridin-2-yl)methanol]
IC50 [2]: 20 to 3160 nM

CC[C@H]1COCCN1c1cc(CS(=O)(=O)N(C)C)nc(-c2ccc3[nH]c(CO)cc3n2)n1 [Example 9, 1-{6-[(3S)-3-ethylmorpholin-4-yl]-2-[2-(hydroxymethyl)-1H-pyrrolo[3,2-b]pyridin-5-yl]pyrimidin-4-yl}-N,N-dimethylmethanesulfonamide]
IC50 [2]: 20 to 3160 nM

CC[C@H]1COCC(=O)N1c1cc(C2(S(C)(=O)=O)CCOCC2)cc(-c2ccc3[nH]c(CO)cc3n2)n1 [Example 26]
IC50 [2]: 20 to 3160 nM

CC[C@H]1COCCN1c1cc(CS(=O)(=O)NC)nc(-c2ccc3[nH]c(CO)cc3n2)n1 [Example 10, 1-{6-[(3S)-3-ethylmorpholin-4-yl]-2-[2-(hydroxymethyl)-1H-pyrrolo[3,2-b]pyridin-5-yl]pyrimidin-4-yl}-N-methylmethanesulfonamide]
IC50 [2]: 20 to 3160 nM

CCc1cc2nc(-c3nc(CS(C)(=O)=O)cc(N4C(=O)COC[C@@H]4CC)n3)ccc2[nH]1 [Example 15, (5S)-5-ethyl-4-(2-{2-ethyl-1H-pyrrolo[3,2-b]pyridin-5-yl}-6-(methanesulfonylmethyl)pyrimidin-4-yl)morpholin-3-one]
IC50 [1]: 158 nM | IC50 [2]: 20 to 3160 nM
